Experimental findings from ChEMBL document CHEMBL1136400, “Substituted bridged phenyl piperidines: orally active growth hormone secretagogues” (Bioorg Med Chem Lett, 2003) are described below.

Bounds are passed on as bounds.

The species entered for the first assay is Rattus norvegicus. The experiment in a line: Effective concentration for their ability to release growth hormone in the rat pituitary cell assay. Conditions: Rattus norvegicus, Pituitary gland cell. Format: functional, organism-based, Pituitary gland cell.
For orientation: EC50 means the concentration giving half of the maximal effect. A lower EC50 goes with an effect from little substance. Compound `CC(C)(N)C(=O)N[C@H](Cc1c[nH]c2ccccc12)C(=O)N1C2CCC1CC(c1ccccc1)C2` (mixture of isomers) displayed an EC50 of 62.8 nM. On the same count and under the same terms, the value for `CCNC(=O)c1ccccc1C1CC2CCC(C1)N2C(=O)[C@@H](CCCc1ccccc1)NC(=O)C(C)(C)N` (mixture of isomers) was 1.3 nM; that for `Cc1ccccc1C1CC2CCC(C1)N2C(=O)[C@@H](CCCc1ccccc1)NC(=O)C(C)(C)N` (mixture of isomers) was 78.4 nM. On the same count and under the same terms, then `CC(C)(N)C(=O)N[C@H](CCCc1ccccc1)C(=O)N1C2CCC1CC(c1ccccc1)C2` (mixture of isomers), with 24 nM.

On to `Cc1ccccc1C1CC2CCC(C1)N2C(=O)[C@@H](Cc1c[nH]c2ccccc12)NC(=O)C(C)(C)N` (mixture of isomers), for which the EC50 was 33.2 nM. `CC(C)(N)C(=O)N[C@H](COCc1ccccc1)C(=O)N1CCC2(CC1)CN(S(C)(=O)=O)c1ccccc12` [IBUTAMOREN] returned an EC50 of 1 nM.

Staying with this assay, now noted: pituitary gland cell.
`CCOC(=O)c1ccccc1C1CC2CCC(C1)N2C(=O)[C@@H](CCCc1ccccc1)NC(=O)C(C)(C)N` (mixture of isomers) registered an EC50 of 90 nM.

On to `CCOC(=O)c1ccccc1C1CC2CCC(C1)N2C(=O)[C@@H](CCCc1ccccc1)NC(=O)C(C)(C)N` (stereo in doubt; 26f), for which the midpoint of the response, the EC50, lay at 48 nM. Against the preceding compound, the EC50 is about 1.9-fold lower. The compound `CC(C)(N)C(=O)N[C@H](CCCc1ccccc1)C(=O)N1C2CCC1CC(c1ccccc1C(=O)O)C2` (stereo in doubt; 26g) showed a 50% effective concentration (EC50) of 9.6 nM. Against the preceding compound, the EC50 is about 5-fold lower. Same read-out and setting: then `CCOC(=O)c1ccccc1C1CC2CCC(C1)N2C(=O)[C@@H](CCCc1ccccc1)NC(=O)C(C)(C)N` (stereo in doubt; 26h), with 324 nM. Compound `CC(C)(N)C(=O)N[C@H](CCCc1ccccc1)C(=O)N1C2CCC1CC(c1ccccc1C(=O)O)C2` (stereo in doubt; 26i) displayed an EC50 greater than 500 nM.
